According to patent US9096555B2, “Methods for treating vascular leak syndrome” (Aerpio Therapeutics, Inc., priority 2009, dated 2015):
Entries after “also recorded” stand apart in the source; their conditions may differ.

What was measured:
IL-2 induced VLS = test: IL-2 induced vascular leak syndrome in mice (blood pressure, shock, mortality); format: in vivo; conditions: then 20 mg/kg for 3 days
Procedure: Twenty-five mice were used for the following experiment. Five are selected as the control and received no treatment. The remaining twenty mice were divided into four groups of five mice each and dosed as follows over a period of 5 days:
Tie-2 signal amplifier at 40 mg/kg for the first 2 days, then at 20 mg/kg for 3 days.
(VSL mechanistic analysis.

[1] = system: pAKT and pERK1/2 in EA.hy962 cells; test: Western blot analysis of pAKT and pERK1/2 in EA.hy962 cells; format: cell-based; conditions: EA.hy962 cells cultured with varying amounts of D91 for 10 minutes; FIG. 9a
Procedure: FIG. 9a depicts a Western blot analysis showing the increase in pAKT and pERK1/2 when EA.hy962 cells were cultured in the presence of varying amounts of […] for 10 minutes. FIG. 9b depicts a Western blot analysis showing the levels of pAKT, pERK1/2 and β-Actin when EA.hy962 cells were cultured in the presence of 10 μg/mL […] from start (T=0) to 120 minutes.

[2] = system: IL-2 induced hypotension and death; test: Rescue of mice from IL-2 induced hypotension and death (systolic blood pressure); format: in vivo; conditions: C3H/HeN female mice; 400,000 IU of IL-2 and 40 mg/kg D91; after 5 days of treatment; FIG. 5
Procedure: A represents the systolic blood pressure of C3H/HeN female mice treated with vehicle control. […] Measurements were taken after 5 days of treatment.
A represents 0 mg/kg D91, B represents 1 mg/kg D91, C represents 3 mg/kg D91, D represents 10 mg/kg D91, and E represents 30 mg/kg D91.

brain edema after tMCAO = test: Vasogenic edema after transient focal cerebral ischemia (tMCAO); format: in vivo, Sprague-Dawley rats; conditions: rats; tMCAO 60 min; 15 mg/kg t.i.d. s.c. starting 1 hour after stroke onset; after the 48 hour MRI
Procedure: 30 adult male Sprague-Dawley rats purchased from Charles River, Germany and weighing 250-330 g were used for the experiment. Animals were housed at a standard temperature (22±1° C.) and in a light-controlled environment (lights on from 7 am to 8 pm) with ad libitum access to food and water.
Animals were grouped as follows:
• Group A: 15 rats treated with Vehicle (2 mL/kg, t.i.d., s.c.) starting 1 hour after stroke onset • Group B: 15 rats treated with AKB-9778-AS (15 mg/kg, t.i.d., s.c.) starting 1 hour after stroke onset tMCAO
Transient focal cerebral ischemia was produced by MCA occlusion in male Sprague-Dawley rats according to Koizumi with modifications (Koizumi et al., Jpn. J. Stroke 8:1-8, 1986). […] The rats were carefully monitored for possible post-surgical complications after the tMCAO. […]
D91 or vehicle was administered s.c. three times a day. […] The body weight of each animal is measured daily. […]
Tissue viability and vasogenic edema was determined using absolute T2 MRI. […] In addition to absolute T2, spin density (amount of MRI visible protons, indicator of vasogenic edema) ratio of ipsi and contralateral ROI's was determined by extrapolating signal intensity at TE=0 from multiple TE data (intercept of T2 fitting).
For the determination of infarct volume, the same acquired T2-weighted images were analyzed using in-house written Matlab based software for morphometric measurement. […]

[3] = system: LPS-induced acute kidney injury; test: Liposaccharide (LPS) induced vascular leak model: acute kidney injury (BUN, renal neutrophil infiltration); format: in vivo; conditions: male C57BL6 mice
Procedure: FIG. 7 depicts the level of blood urine nitrogen (BUN) in male C57BL6 mice injected i.p. with 0.2 mg E. coli lipopolysaccharides per 25 g body weight at 0 hours. Line (◯) represents mice receiving only LPS and line (●) represents mice receiving LPS and 50 mg/kg of D91 at 0, 8, and 16 hours.
FIG. 8 depicts the level of LPS-induced renal neutrophil infiltration at 24 hours in male C57BL6 mice injected i.p. with 0.2 mg E. coli lipopolysaccharides per 25 g body weight at 0 hours. A depicts the neutrophil infiltration in sham (conrol), B depicts the neutrophil infiltration in male C57BL6 mice injected i.p. with 0.2 mg E. coli lipopolysaccharides per 25 g body weight and 50 mg/kg of D91, C depicts mice receiving only LPS.
The following liposaccharide induced vascular leakage model can be used to confirm the ability of the disclosed compounds to decrease the effects of vascular leak syndrome caused by pathogens. […]
Male C57BL6 mice, 9 to 10 weeks old, were injected i.p. with 0.2 mg E. Coli lipopolysaccharide per 25 g body weight at time 0. […] Serum samples were analyzed for blood urea nitrogen (BUN) as a marker of kidney function.
Tissue samples from the animals were analyzed by high powered field microscopy to determine the number of polymorphonuclear leukocytes present.

[4] = system: LPS-induced renal vascular leak; test: LPS-induced renal vascular leak, 70 kDa fluorescent fixable dextran; format: in vivo; conditions: mice; LPS at time 0, D91 at 1, 6 and 16 h; sacrifice at 24 hours; FIG. 10c
Procedure: FIG. 10a is a micrograph of a renal section from a mouse treated with vehicle control that is subsequently injected with 70 kDa fluorescent fixable dextran by intravenous catheter 2 minutes prior to sacrifice. G indicates glomerular capillaries where the dye should normally be contained.
FIG. 10b is a micrograph showing the vascular leakage in cells of a renal section from a mouse treat with LPS that is subsequently injected with 70 kDa fluorescent fixable dextran by intravenous catheter 2 minutes prior to sacrifice.
The pattern of staining in this section is similar to 10a.
Phosphatase inhibition by the disclosed PTP-β inhibitors reduces LPS-induced renal vascular leak. Mice were injected with LPS at time 0 and D91 or vehicle at 1, 6, and 16 h. Two minutes prior to sacrifice at 24 hours 70 kDa fluorescent fixable dextrans were administered by intravenous catheter. […] FIG. 10a is a micrograph of the control sample for the 70 kDa sample wherein the Letter “G” represents glomerular capillaries where the dye should normally be contained. FIG. 10b represents a renal section taken from an LPS treated animal and FIG. 10c represents a renal section taken from an animal treated with LPS and D91.

COC(=O)N[C@@H](Cc1ccccc1)C(=O)N[C@@H](Cc1ccc(NS(=O)(=O)O)cc1)c1csc(-c2cccs2)n1 [Compound D91, 4-{(S)-2-[(S)-2-(methoxycarbonylamino)-3-phenylpropanamido]-2-[2-(thiophen-2-yl)thiazol-4-yl]ethyl}phenylsulfamic acid]
blood pressure (IL-2 induced VLS; IL-2 180,000 or 400,000 IU for 5 days plus D91 40 mg/kg first 2 days, FIG. 1): little effect on blood pressure | clinical symptoms of shock (IL-2 induced VLS; high dose IL-2 (400,000 IU, 5 days) plus D91 40 mg/kg first 2 days, FIG. 2): no signs of shock | IL-2 induced mortality (IL-2 induced VLS; high dose IL-2 (400,000 IU, 5 days) plus D91 40 mg/kg first 2 days, FIG. 3): survived | pAKT and pERK1/2 (Western blot) [1]: increase | rescue from IL-2 induced hypotension and death (systolic blood pressure) [2]: rescue of mice from IL-2 induced hypotension and death | brain tissue wet weight in ischemic hemisphere (edema) (brain edema after tMCAO): significantly lower | blood urine nitrogen (BUN) level ([3]; LPS 0.2 mg per 25 g i.p., D91 50 mg/kg at 0, 8 and 16 hours, at 24 hours, FIG. 7): less than 80 mg/dL | number of PMN cells present (renal neutrophil infiltration), high powered field microscopy ([3]; LPS plus D91 50 mg/kg, 24 hours, average, FIG. 8): 12 | extrusion of 70 kDa fluorescent dextran dye beyond the small peritubular capillaries (renal vascular leak) [4]: vascular integrity is preserved; also recorded: reduced
